According to patent US8940915B2, “Solvent for recovery of maleic anhydride from a gas stream” (Huntsman Petrochemical LLC, priority 2011, dated 2015):
≈ marks a conversion by molar mass, not a printed value.

Legend:
[1] = Solubility of maleic anhydride in the solvent; type: physicochemical; conditions: maleic anhydride dissolved in dibutyl adipate, at 60° C.
[2] = Solubility of fumaric acid in the solvent; type: physicochemical; conditions: fumaric acid dissolved in dibutyl adipate, at 60° C.
Solubility in water = type: physicochemical; conditions: at 25° C.

CCCCOC(=O)CCCCC(=O)OCCCC [dibutyl adipate, Di-n-butyl adipate]
Solubility of Maleic Anhydride [1]: >20 wt % at 60 °C
Solubility of Fumaric Acid [2]: about 0.15 wt % at 60 °C
Toxicity (in words) (Toxicity statement): neither dibutyl adipate nor any of its hydrolysis products is toxic
solubility (Solubility in water): 35 µg/mL (≈ 135 µM)
